Experiments:
[1] = test system: Gαi/o protein, rat brain membrane homogenates; assay: Functional [^35S]GTPγS binding (G-protein activity); assay type: biochemical, rat (male Wistar); conditions: 10 µM, basal activity = 100%, 30 °C, 60 min, triplicates, at least three times; for effect on G-protein basal activity / [^35S]GTPγS specific binding (in words): rat brain membranes, pH 7.4
Experimental: (§1) Rats were decapitated and their brains were quickly removed. The brains were used for membrane preparation according to Benyhe et al. partly used for competition binding experiments and partly were further prepared for the [^35S]GTPγS binding experiments based on Zádor et al.. Briefly, the brains were homogenized, centrifuged in ice-cold 50 mM Tris-HCl (pH 7.4) buffer and incubated at 37 °C for 30 min in a shaking water-bath. After incubation, the centrifugation was repeated as described before and the final pellet was suspended in 50 mM Tris-HCl pH 7.4 buffer containing 0.32 M sucrose and stored at −80 °C. For the [^35S]GTPγS binding experiments the final pellet of rat brain membrane homogenate was suspended in ice-cold TEM (Tris-HCl, EGTA, MgCl2) and stored at −80 °C for further use.
In [^35S]GTPγS binding experiments was measured the GDP→GTP exchange of the Gαi/o protein in the presence of a given ligand to measure ligand potency and the maximal efficacy of receptors G-protein. The nucleotide exchange is monitored by a radioactive, non-hydrolysable GTP analog, [^35S]GTPγS. The functional [^35S]GTPγS binding experiments were performed as previously described, with some modifications. The test compounds in 10 µM were incubated together with rat brain membrane homogenates containing ~10 μg/mL protein at 30 °C for 60 min in Tris-EGTA buffer (pH 7.4) composed of 50 mM Tris-HCl, 1 mM EGTA, 3 mM MgCl2, 100 mM NaCl, containing 20 MBq/0.05 cm^3 [^35S]GTPγS (0.05 nM). […] Total binding was measured in the absence of test compounds, while non-specific binding was determined in the presence of 10 μM unlabeled GTPγS. The bound and unbound [^35S]GTPγS were separated as described in the competition binding assays section through Whatmann GF/B glass fibers. The radioactivity of the filters was also detected as described above. [^35S]GTPγS binding experiments were performed in triplicates and repeated at least three times.
(§2) The specific binding of all radiolabeled compounds was calculated by the subtraction of non-specific binding from total binding and was given in percentage. The data were normalized to total specific binding, which was settled 100%, which in the case of [^35S]GTPγS also represents the basal activity of the G-protein. Experimental data were presented as mean ± S.E.M. Statistical analyses were performed with GraphPad Prism 5.0 applying one-way ANOVA with Tukey’s multiple comparison test. Significance was accepted at the p < 0.05 level.

[2] = test system: MOR (µ-opioid receptor), rat brain membranes; assay: Radioligand competition binding, [^3H]DAMGO; set-up: species or system rat (male Wistar); conditions: for activity against MOR (in words): stated when comparing binding modes, up to 10 µM
Experimental: as §1
Total and non-specific binding was determined in the absence of ligands and the presence of 10 µM unlabeled naloxone, respectively. Following incubation, the bound and unbound radioligands were separated by rapid vacuum filtration through Whatman GF/C glass fibers and washed three times with 5 mL ice-cold 50 mM Tris-HCl (pH: 7.4). The radioactivity of the filters was detected in UltimaGold^TM MV aqueous scintillation cocktail with Packard Tricarb 2300TR liquid scintillation counter. The competition binding assays were performed in duplicate and repeated at least three times.
as §2

[3] = test system: MOR, rat brain membrane homogenates; assay: MOR specificity of the peptide 1 effect: [^35S]GTPγS binding with co-incubated DAMGO or cyprodime; assay type: biochemical, rat (male Wistar); conditions: rat brain membranes
Experimental: as §1, with “For the [^35S]GTPγS binding experiments the final pellet of rat brain membrane homogenate was suspended in ice-cold TEM (Tris-HCl, EGTA, MgCl2) and stored at −80 °C for further use.” left out
In [^35S]GTPγS binding experiments was measured the GDP→GTP exchange of the Gαi/o protein in the presence of a given ligand to measure ligand potency and the maximal efficacy of receptors G-protein. The nucleotide exchange is monitored by a radioactive, non-hydrolysable GTP analog, [^35S]GTPγS. […] Total binding was measured in the absence of test compounds, while non-specific binding was determined in the presence of 10 μM unlabeled GTPγS. […] The radioactivity of the filters was also detected as described above. […]
(§3) The specific binding of all radiolabeled compounds was calculated by the subtraction of non-specific binding from total binding and was given in percentage. […]

[4] = test system: DOR (δ-opioid receptor), rat brain membranes; assay: Radioligand competition binding, [^3H]IleDelt II; set-up: species or system rat (male Wistar); conditions: 3 and 10 µM
Experimental: as §1
Total and non-specific binding was determined in the absence of ligands and the presence of 10 µM unlabeled naloxone, respectively. […] The radioactivity of the filters was detected in UltimaGold^TM MV aqueous scintillation cocktail with Packard Tricarb 2300TR liquid scintillation counter. […]
as §3

[5] = biological target: δ-opioid receptor (rat (endogenous in Wistar rat brain)) (UniProt P33533); assay: radioligand binding; competition against ~1 nM [^3H]IleDelt II on rat brain membranes (0.3-0.5 mg/mL protein), test ligands at 3 and 10 µM, 35 °C, 45 min; non-specific binding with 10 µM naloxone; filtration, 50 mM Tris-HCl pH 7.4 wash
[6] = test system: δ-opioid receptors; conditions: ref [11]; cited from earlier work
Description: These are potent μ-opioid agonists that exert addiction liability and numerous side effects, such as euphoria, addiction, respiratory depression, and gastrointestinal adverse reactions; therefore; circumventing these drawbacks is of extensive importance. A large amount of literature documented novel approaches to disconnecting the analgesic efficacy of μ-opioid agonists from morphine-like side effects, for example biasing the GPCRs over β-arrestin2 recruitment (TRV130, PZM21, HS665) or designing positive allosteric modulators of the MOR (BMS-986122), MOR inverse agonists/KOR antagonists, ...

[7] = biological target: µ-opioid receptor (rat (endogenous in Wistar rat brain)) (UniProt P33535)

Q: Which results are given for “H-Tyr-Lys-Arg-Cys-OH [peptide 1, TFA.H-Tyr-Lys-Arg-Cys-OH]”?
A: reduction of G-protein basal activity ([^35S]GTPγS specific binding) ([1]; rat brain membranes ~10 μg/mL, pH 7.4, 0.05 nM [^35S]GTPγS): ~ 20%; effect on G-protein basal activity / [^35S]GTPγS specific binding (in words) [1]: appreciable inverse agonist effect; inhibition of [^3H]DAMGO specific binding (in words) ([2]; 3 and 10 µM, rat brain membranes): displayed inhibition of [^3H]DAMGO specific binding; selectivity MOR over DOR (in words) ([2]; [^3H]DAMGO vs [^3H]IleDelt II binding, rat brain membranes): selectivity for MOR over DOR; MOR functional activity (in words) ([3]; 10 µM): appreciable inverse agonist effect at MOR; inverse agonist effect in presence of DAMGO ([3]; peptide 1 10 µM + DAMGO 10 µM): the inverse agonist effect was reversed back to basal activity level; inhibition of [^3H]IleDelt II specific binding (in words) [4]: not against [^3H]IleDelt II

Q: With “H-Tyr-Trp-Trp-Trp-OH [peptide 2, TFA.H-Tyr-Trp-Trp-Trp-OH]” as the molecule, how does the “effect on G-protein basal activity / [^35S]GTPγS specific binding (in words)” value [1] read?
A: Its value is “did not alter significantly the basal activity”.

Q: And the “activity against MOR (in words)” value [2]?
A: The value was “inactive against MOR”.

Q: Which results are given for “H-Tyr-Trp-Tyr-Trp-OH [peptide 3, TFA.H-Tyr-Trp-Tyr-Trp-OH]”?
A: effect on G-protein basal activity / [^35S]GTPγS specific binding (in words) [1]: did not alter significantly the basal activity; activity against MOR (in words) [2]: inactive against MOR

Q: For Ile^5,6-deltorphin II (peptide), which specific binding of the radiolabeled homolog left (percent of total) [5] is on record?
A: The specific binding of the radiolabeled homolog left (percent of total) was 0%.

Q: Which results are given for “Tyr-D-Ala-Gly-(NMe)Phe-Gly-ol [DAMGO, reference compound]”?
A: effect on G-protein basal activity / [^35S]GTPγS specific binding (in words) [1]: significantly increased the specific binding of the [^35S]GTPγS compared to the basal level; specific binding of [^3H]DAMGO in presence of unlabeled homologue ([2]; control, unlabeled DAMGO 3 and 10 µM, rat brain membranes, 35 °C, 45 min, 0% = non-specific binding level): 0%

Q: For rubiscolin-6, which “G protein signaling at δ-opioid receptors (in words)” value [6] is on record?
A: Its value is “activate G protein signaling pathways at the δ-opioid receptors”.

Q: What about the “β-arrestin recruitment (in words)” value [6] of the same molecule?
A: The value was “minimal β-arrestin recruitment”.

Q: With YKRC [peptide 1 (Tyr-Lys-Arg-Cys)] as the molecule, how does the [^35S]GTPγS specific binding (G-protein basal activity) in rat brain membranes, 10 µM peptide 1 [7] read?
A: The [^35S]GTPγS specific binding (G-protein basal activity) in rat brain membranes, 10 µM peptide 1 was 20%.

From PMC6865014, “Discovery of Novel µ-Opioid Receptor Inverse Agonist from a Combinatorial Library of Tetrapeptides through Structure-Based Virtual Screening” (Molecules, 2019)
